{"source": "paper PMC8537218", "about": "“Discovery of a Novel Class of Norovirus Inhibitors with High Barrier of Resistance” (Pharmaceuticals, 2021)", "key": {"MNV [1]": {"test_system": "MNV", "assay": "Time-of-drug-addition assay (TOA) in MNV-infected RAW 264.7 cells", "format": "cell-based, Murine norovirus", "description": "RAW 264.7 cells (4 × 10^5 cells/mL) were infected with MNV (MOI of 1). After 1 h at 4 °C, cells were washed with cold (4 °C) DMEM to remove unbound viruses. Cells were incubated at 37 °C to start the infection. To study the replication kinetics of MNV supernatant and cells were harvested, from untreated cultures, every 2 h until 24 h post-infection (pi) and viral RNA was quantified by RT-qPCR. In parallel, another set of infected cultures were treated with compound. The compound was added at 2 h intervals and cultures were further incubated until 24 h pi, supernatant and cells were collected separately for determination of the viral RNA by RT-qPCR. The isolation of the extracellular MNV RNA from cell culture supernatant was done by the NucleoSpin RNA Virus Kit (Macherey–Nagel), and the intracellular RNA was extracted from cells by the RNeasy kit (Qiagen)."}, "[2]": {"test_system": "Murine norovirus type 1, strain CW1", "assay": "MNV-induced CPE reduction assay (MTS read-out) in RAW 264.7 cells", "format": "cell-based", "conditions": "MNV CW1, RAW 264.7 cells, read-out: MNV EC50 ± SD", "description": "Norovirus: The experiment was performed as described earlier. In short, RAW 264.7 cells (1 × 10^4 cells/well) were infected with MNV.CW1 in the presence of a dilution series of compounds. Antiviral activity and cytotoxicity were determined using a colometric assay using 3-(4,5-dimethylthiazol-2-yl)-5-(3-carboxymethoxyphenyl)-2-(4-sulfophenyl)-2H-tetrazolium (MTS). The 50% effective concentration (EC50) was defined as the compound concentration that protected 50% of the cells from CPE. The cell viability % was calculated as (ODtreated/ODCC) […] and the 50% cytotoxic concentration (CC50) was defined as the compound concentration that reduces the number of viable cells by 50%."}, "[3]": {"test_system": "compound 6res MNV variants", "assay": "Antiviral assay on selected compound 6res MNV variants in RAW 264.7 cells", "format": "cell-based, Murine norovirus", "description": "RAW 264.7 cells (1 × 10^4 cells/well) were seeded into the wells of 96-well plate and were infected with MNV.CW1 in the presence of a dilution series of compounds. When CPE was visible in the virus control (no compound), all the wells were scored for visible CPE. Virus was harvested from the wells in which CPE was observed under the highest compound pressure. The resistant virus was then diluted to 1:5 and used to infect a new 96-well plate under the same conditions to continue. […] MNV^res viruses were analyzed by deep sequencing by the group of Prof. Matthijnssens as described previously. The assembled sequence of the untreated MNV, that was passaged in parallel, was used as reference to align the MNV variants that were under compound pressure.\n(§1) The assessment of the antiviral activity of compounds on resistant viruses was performed similarly as the regular antiviral assay on MNV. First, the titer of the resistant viruses was determined by endpoint titration. A concentration of 30× TCID50 was used for each virus in the antiviral assays. RAW 264.7 cells (1 × 10^4 cells/well) were seeded in the presence of a dilution series of compounds and infected. Antiviral activity was determined using the MTS method. The 50% effective concentration (EC50) was defined as the compound concentration that protected 50% of the cells from CPE."}, "[4]": {"test_system": "HuNoV GI.1 replicon (Norwalk replicon)", "assay": "HuNoV GI.1 replicon assay in HG23 cells (RT-qPCR)", "format": "cell-based, Human norovirus", "description": "HuNoV GI.1 replicon: The experiment was performed as described earlier with minor modifications. In short, HG23 cells (7.5 × 10^2 cells/well) were seeded into the wells of a 96-well plate without G418 (Geneticin Selective Antibiotic). After 24 h of incubation, serial dilutions of compounds were added. Cells were further incubated for 72 h, then cells were collected for RNA load quantification by RT-qPCR. To determine relative levels of Norwalk virus replicon RNA, β-actin was used as a normalizer and ratios were calculated as previously described."}, "[5]": {"test_system": "MNV.CW3/S131T and MNV.CW3/Y154F", "assay": "Antiviral assay on reverse-engineered MNV.CW3 mutant viruses (S131T, Y154F)", "format": "cell-based, Murine norovirus", "conditions": "single mutations S131T or Y154F in MNV backbone", "description": "The desired mutations were introduced into the MNV.CW3 cDNA clones using the QuikChange II XL mutagenesis kit (Agilent) according to the manufacturer’s instructions. The presence of the desired mutation in the produced construct was confirmed by PCR and sequencing was done by Macrogen Inc. Sequences were analyzed and mutations were detected using the Geneious software.\nThe MNV.CW3 mutant viral stocks were obtained by transfecting the mutated plasmid pMNV CW3 (kindly provided by Prof. Wobus, University of Michigan) in Huh 7 Lunet cells expressing the MNV receptor CD300lf (kindly provided by Prof. Taube, University of Lübeck). Huh-7 CD300lf cells were cultured under selective pressure of G418. The Huh-7 CD300lf cells were seeded in 6-well plates at a density of 2 × 10^5 cells/mL in 2.5 mL of complete media. After 24 h, the cells were transfected with 2.5 μg of pMNV CW3 plasmid DNA using the TransIT mRNA Transfection Kit (Mirus Bio Corporation) according to the manufacturer’s protocol. Red fluorescent protein (RFP) was used as a positive control for transfection. Transfected cells were incubated for 48 h, cells underwent two freeze thaw cycles and the virus was harvested from the supernatants after centrifugation (10 min, 1000× g) and stored at −80 °C. Virus stocks were passaged for three times on BV-2 cells and followed by two consecutive passages on RAW 264.7 cells. Viral titers were determined by serial dilutions on RAW 264.7 cells seeded in 96-well plates.\nas §1"}, "MNV RdRp": {"biological_target": "MNV RdRp (Norovirus, UniProt Q80J95)", "sequence (Q80J95 1178-1687)": "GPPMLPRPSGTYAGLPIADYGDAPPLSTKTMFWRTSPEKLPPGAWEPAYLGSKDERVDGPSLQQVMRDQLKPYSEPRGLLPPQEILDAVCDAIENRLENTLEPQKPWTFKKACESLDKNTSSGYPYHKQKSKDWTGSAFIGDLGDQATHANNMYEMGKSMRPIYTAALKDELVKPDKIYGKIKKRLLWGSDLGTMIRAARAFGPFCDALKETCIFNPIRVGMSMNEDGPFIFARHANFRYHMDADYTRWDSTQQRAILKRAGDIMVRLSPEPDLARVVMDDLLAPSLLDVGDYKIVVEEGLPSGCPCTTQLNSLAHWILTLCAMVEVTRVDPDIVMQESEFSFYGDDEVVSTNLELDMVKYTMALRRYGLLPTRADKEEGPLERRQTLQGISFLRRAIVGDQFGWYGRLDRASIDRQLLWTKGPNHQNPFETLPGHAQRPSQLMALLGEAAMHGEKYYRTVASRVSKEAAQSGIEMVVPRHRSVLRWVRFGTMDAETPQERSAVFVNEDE", "assay": "In vitro enzymatic inhibition assay with MNV RdRp", "format": "biochemical, Murine norovirus", "conditions": "3.4 µM MNV RdRp, poly(U) template, 100 µM ATP, compound 0 to 100 µM", "description": "Compound 6 was tested to determine its effects on the polymerase activity. The formation of dsRNA, from a single-stranded poly(U) template (Sigma-Aldrich, 10 µg) and 100 µM ATP, was followed for 1 h at 30 °C on a TECAN Infinite 200 PRO microplate reader, measuring the growth of PicoGreen fluorescence (Ex/Em = 485/530 nm) after the addition of 3.4 µM MNV RdRp and of increasing amounts of compound 6 (from 0 to 100 µM), in a reaction mixture containing 20 mM Tris/HCl (pH 7.5), 25 mM NaCl, 0,3 mM MnCl2, 5 mM MgCl2, 1 mM DTT, 2 U RiboLock Ribonuclease inhibitor (Life technologies). The final fluorescence values were calculated as the average of four independent experiments. Measurement of the activity (i.e., linear slope of fluorescence increase in time) vs. compound 6 concentration was used to estimate the IC50 value of the compound with the program GraFit5 (Erithacus software)."}, "MNV [6]": {"test_system": "MNV", "assay": "MNV virus yield assay, viral RNA by RT-qPCR", "format": "cell-based, Murine norovirus", "conditions": "viral RNA levels by RT-qPCR", "description": "The supernatants of treated or untreated infected cells were harvested. The viral RNA was isolated from supernatant using the NucleoSpin RNA Virus Kit (Macherey–Nagel), according to the manufacturer’s protocol and was quantified by RT-qPCR. A one-step RT-qPCR was performed in a reaction mixture of 20 μL containing 10 μL reaction mix from the iTaq Universal Probes One-Step Kit (Bio-Rad), 0.5 μL reverse transcriptase, 4 μL template RNA, primers, and probe."}}, "note": "Values joined by “and” are separate entries in the source; they are usually repeats but may differ in a detail not shown here. Identical values can stand only once. “Also recorded” adds a separate entry of the source. Like-named read-outs stand apart in the source and are kept apart here."}
{"smiles": "Cc1cc(C)cc(S(=O)(=O)c2c(C(=O)NCc3ccc(CO)cc3)[nH]c3ccc(Cl)cc23)c1", "note": "[compound 6, 5-Chloro-3-((3,5-dimethylphenyl)sulfonyl)-N-(4-(hydroxymethyl)benzyl)-1H-indole-2-carboxamide]", "values": [{"measurement": "time of addition after which the antiviral effect was lost", "setting": "MNV [1]; MNV MOI 1, RAW 264.7 cells, compound added at 2 h intervals", "value": "6–8 h pi"}, {"measurement": "step of the MNV replication cycle at which the compound acts", "setting": "MNV [1]; time-of-addition experiment", "value": "onset of the viral genome replication"}, {"measurement": "EC50", "setting": "[2]; RAW264.7, concentration inhibiting norovirus induced cell death (CPE) by 50%", "value": "200 ± 100", "unit": "nM"}, {"measurement": "EC50", "setting": "[2]; concentration inhibiting norovirus induced cell death (CPE) by 50%", "value": "160 ± 60", "unit": "nM"}, {"measurement": "shift in EC50", "setting": "[3]; mutants 1 and 3 together", "value": "6–8 fold"}, {"measurement": "shift in EC50 values", "setting": "[3]; resistant variant mutant 1 (first value), after 30 passages", "value": 8.6, "unit": "fold"}, {"measurement": "shift in EC50 values", "setting": "[3]; resistant variant mutant 3, after 30 passages", "value": 6.2, "unit": "fold"}, {"measurement": "melting point", "value": "124 to 126", "unit": "°C"}, {"measurement": "EC50", "setting": "[4]; Norovirus, HG23, 72 h, read-out: HuNoV Replicon EC50 ± SD (µM), Norwalk replicon (human GI.1), HG23 cells, 72 h, replicon RNA by RT-qPCR", "value": 1.24, "unit": "µM"}, {"measurement": "EC50", "setting": "[4]; Norwalk replicon (human GI.1), HG23 cells, 72 h, replicon RNA by RT-qPCR, read-out: HuNoV Replicon EC50 ± SD", "value": "1.2 µM and ~1.7 µM"}, {"measurement": "adverse effects on the host cells", "setting": "[4]; host cells of HuNoV GI.1 replicon assay", "value": "without adverse effects on the host cells"}, {"measurement": "EC50", "setting": "[4]; read-out: HuNoV Replicon EC50 ± SD, Norwalk replicon (human GI.1), HG23 cells, 72 h, replicon RNA by RT-qPCR", "value": "1.27 ± 0.76", "unit": "µM"}, {"measurement": "shift in EC50 / sensitivity of mutant viruses", "setting": "[5]", "value": "no shift in EC50"}, {"measurement": "direct inhibition of the norovirus polymerase (competition with natural substrate)", "setting": "MNV RdRp", "value": "no direct competition; also recorded: could not directly inhibit the active site of the enzyme"}, {"measurement": "EC50", "setting": "MNV [6]", "value": "210 ± 30", "unit": "nM"}]}
